Measurements: the NIST ThermoML archive (doi:10.1021/je700288s)
Several values for one entry are separate records, joined by “and”; a condition that tells them apart may be missing. Identical values can stand only once.

Key:
[1] = mn = molality of the nth substance listed, in mol/kg; settings: 101 kPa, Liquid; for speed of sound: Sing-around technique in a fixed-path interferometer; for mass density: Vibrating tube method
[2] = 283.15 K; 101 kPa; Liquid; Vibrating tube method

C[C@H](N)C(=O)O [(S)-2-aminopropanoic acid] + O
[1]
Settings	mass density, m1 = 0.23	mass density, m1 = 0.47	mass density, m1 = 0.72	speed of sound, m1 = 0.23	speed of sound, m1 = 0.47	speed of sound, m1 = 0.72
283.15 K	1006.29 kg/m3 and 1006.34 kg/m3	1012.74 kg/m3 and 1012.69 kg/m3	1018.71 kg/m3 and 1019.09 kg/m3	1464.4 m/s and 1464.1 m/s	1480.4 m/s and 1480.5 m/s	1496.7 m/s and 1495.8 m/s
288.15 K	1005.65 kg/m3 and 1005.61 kg/m3	1011.96 kg/m3 and 1011.92 kg/m3	1017.87 kg/m3 and 1018.24 kg/m3	1482 m/s and 1481.8 m/s	1497.6 m/s and 1497.4 m/s	1512.2 m/s and 1513 m/s
293.15 K	1004.68 kg/m3 and 1004.64 kg/m3	1010.93 kg/m3 and 1010.89 kg/m3	1016.77 kg/m3 and 1017.14 kg/m3	1497.7 m/s and 1497.4 m/s	1512.4 m/s and 1512.6 m/s	1527.5 m/s and 1526.7 m/s
298.15 K	1003.46 kg/m3 and 1003.43 kg/m3	1009.62 kg/m3 and 1009.66 kg/m3	1015.82 kg/m3 and 1015.45 kg/m3	1511.4 m/s and 1511.1 m/s	1525.6 m/s and 1525.8 m/s	1540.1 m/s and 1539.4 m/s
303.15 K	1001.98 kg/m3 and 1002.01 kg/m3	1008.13 kg/m3 and 1008.17 kg/m3	1014.29 kg/m3 and 1013.92 kg/m3	1523.3 m/s and 1523.1 m/s	1537.1 m/s and 1537.2 m/s	1551 m/s and 1550.3 m/s
308.15 K	1000.33 kg/m3 and 1000.36 kg/m3	1006.44 kg/m3 and 1006.48 kg/m3	1012.57 kg/m3 and 1012.19 kg/m3	1533.6 m/s and 1533.3 m/s	1546.9 m/s and 1547 m/s	1560.4 m/s and 1559.7 m/s

O [water]
Settings	mass density [kg/m3]
[2]	999.699
